Measured values from the NIST ThermoML archive (doi:10.1016/j.fluid.2018.05.028).

Test: refractive index (Na D-line) (dimensionless); xn = mol fraction of the nth substance listed
Conditions: 101 kPa, Liquid, Standard Abbe refractometry

CCCCCCCCCCCCCCCC [hexadecane] + CCCCO
refractive index
Conditions | x2 = 0 | x2 = 0.1 | x2 = 0.2 | x2 = 0.3 | x2 = 0.4 | x2 = 0.5 | x2 = 0.6 | x2 = 0.7 | x2 = 0.8 | x2 = 0.9
293.15 K | 1.434 | 1.4329 | 1.4315 | 1.4295 | 1.4274 | 1.425 | 1.422 | 1.4184 | 1.4139 | 1.4078
298.15 K | 1.4318 | 1.4307 | 1.4293 | 1.4274 | 1.4252 | 1.4228 | 1.4199 | 1.4162 | 1.4118 | 1.4057
303.15 K | 1.4296 | 1.4286 | 1.4271 | 1.4252 | 1.4231 | 1.4206 | 1.4177 | 1.4141 | 1.4096 | 1.4036
308.15 K | 1.4275 | 1.4264 | 1.425 | 1.423 | 1.4209 | 1.4185 | 1.4155 | 1.4119 | 1.4075 | 1.4015
313.15 K | 1.4254 | 1.4242 | 1.4228 | 1.4208 | 1.4187 | 1.4163 | 1.4134 | 1.4097 | 1.4053 | 1.3994
318.15 K | 1.4233 | 1.4221 | 1.4206 | 1.4186 | 1.4165 | 1.4141 | 1.4111 | 1.4075 | 1.4031 | 1.3973
323.15 K | 1.4211 | 1.4199 | 1.4184 | 1.4164 | 1.4143 | 1.4119 | 1.4089 | 1.4053 | 1.4009 | 1.3951
328.15 K | 1.419 | 1.4177 | 1.4162 | 1.4142 | 1.4121 | 1.4097 | 1.4067 | 1.4031 | 1.3987 | 1.3929
333.15 K | 1.4169 | 1.4156 | 1.4141 | 1.4121 | 1.4099 | 1.4074 | 1.4045 | 1.4009 | 1.3965 | 1.3907
338.15 K | 1.4149 | 1.4135 | 1.4119 | 1.4099 | 1.4077 | 1.4052 | 1.4022 | 1.3987 | 1.3942 | 1.3885
343.15 K | 1.4129 | 1.4114 | 1.4097 | 1.4076 | 1.4056 | 1.403 | 1.4 | 1.3964 | 1.392 | 1.3862

CCCCCCCCCCCCCCCC [hexadecane] + CCCO
refractive index
Conditions | x2 = 0 | x2 = 0.1 | x2 = 0.2 | x2 = 0.3 | x2 = 0.4 | x2 = 0.5 | x2 = 0.6 | x2 = 0.7 | x2 = 0.8 | x2 = 0.9
293.15 K | 1.434 | 1.4327 | 1.431 | 1.4288 | 1.4266 | 1.4233 | 1.4196 | 1.4148 | 1.4084 | 1.3993
298.15 K | 1.4318 | 1.4305 | 1.4288 | 1.4266 | 1.4244 | 1.4211 | 1.4174 | 1.4127 | 1.4062 | 1.3972
303.15 K | 1.4296 | 1.4284 | 1.4266 | 1.4244 | 1.4222 | 1.4189 | 1.4152 | 1.4105 | 1.4041 | 1.3951
308.15 K | 1.4275 | 1.4262 | 1.4245 | 1.4223 | 1.42 | 1.4167 | 1.4131 | 1.4083 | 1.4019 | 1.3929
313.15 K | 1.4254 | 1.4241 | 1.4223 | 1.4201 | 1.4179 | 1.4145 | 1.4109 | 1.4061 | 1.3998 | 1.3908
318.15 K | 1.4233 | 1.4219 | 1.4201 | 1.4179 | 1.4156 | 1.4123 | 1.4087 | 1.4038 | 1.3976 | 1.3885
323.15 K | 1.4211 | 1.4197 | 1.4179 | 1.4157 | 1.4134 | 1.41 | 1.4064 | 1.4016 | 1.3952 | 1.3863
328.15 K | 1.419 | 1.4176 | 1.4157 | 1.4135 | 1.4112 | 1.4077 | 1.4041 | 1.3993 | 1.393 | 1.3841
333.15 K | 1.4169 | 1.4154 | 1.4135 | 1.4113 | 1.4089 | 1.4054 | 1.4018 | 1.397 | 1.3907 | 1.3818
338.15 K | 1.4149 | 1.4133 | 1.4113 | 1.4091 | 1.4067 | 1.4032 | 1.3995 | 1.3947 | 1.3884 | 1.3795
343.15 K | 1.4129 | 1.4111 | 1.4092 | 1.4069 | 1.4044 | 1.401 | 1.3972 | 1.3924 | 1.386 | 1.3771
